Reference: ChEMBL document CHEMBL3414470, “Synthesis and biological evaluation of 4-oxycoumarin derivatives as a new class of antifilarial agents” (Eur J Med Chem, 2015)
In brackets after ≈: the same amount, converted by molar mass. Activity calls are given as the source filed them. The rule behind the calls is not given here.

Tests used:
[1] = test system: Brugia malayi; assay: Antifilarial activity against Brugia malayi adult worm assessed as reduction in motility at 0.312 uM after 5 days by MTT dye reduction assay; format: functional; settings: 120 h
[2] = test system: Brugia malayi; assay: Antifilarial activity against Brugia malayi adult worm assessed as reduction in motility at 0.156 uM after 5 days by MTT dye reduction assay; format: functional; settings: 120 h
[3] = test system: Brugia malayi; assay: Antifilarial activity against Brugia malayi adult worm assessed as reduction in motility at 0.078 uM after 5 days by MTT dye reduction assay; format: functional; settings: 120 h
[4] = test system: Brugia malayi; assay: Antifilarial activity against Brugia malayi adult worm assessed as reduction in motility at 0.039 uM after 5 days by MTT dye reduction assay; format: functional; settings: 120 h
[5] = test system: Brugia malayi; assay: Antifilarial activity against Brugia malayi adult worm assessed as reduction in motility at 0.019 uM after 5 days by MTT dye reduction assay; format: functional; settings: 120 h
[6] = test system: Brugia malayi; assay: Antifilarial activity against Brugia malayi microfilaria assessed as reduction in motility at 0.312 uM after 5 days by MTT dye reduction assay; format: functional; settings: 120 h
[7] = test system: Brugia malayi; assay: Antifilarial activity against Brugia malayi microfilaria assessed as reduction in motility at 0.156 uM after 5 days by MTT dye reduction assay; format: functional; settings: 120 h
[8] = test system: Brugia malayi; assay: Antifilarial activity against Brugia malayi microfilaria assessed as reduction in motility at 0.078 uM after 5 days by MTT dye reduction assay; format: functional; settings: 120 h
[9] = test system: Brugia malayi; assay: Antifilarial activity against Brugia malayi microfilaria assessed as reduction in motility at 0.039 uM after 5 days by MTT dye reduction assay; format: functional; settings: 120 h
[10] = test system: Brugia malayi; assay: Antifilarial activity against Brugia malayi microfilaria assessed as reduction in motility at 0.019 uM after 5 days by MTT dye reduction assay; format: functional; settings: 120 h
[11] = test system: Brugia malayi; assay: Antifilarial activity against Brugia malayi adult worm assessed as reduction in motility after 5 days by MTT dye reduction assay; format: functional, organism-based
[12] = (§1) Selectivity index, ratio of CC50 for African green monkey Vero cells to IC50 for Brugia malayi adult worm; format: functional
[13] = test system: Brugia malayi; assay: Antifilarial activity against Brugia malayi microfilaria assessed as reduction in motility after 5 days by MTT dye reduction assay; format: functional, organism-based
[14] = (§2) Selectivity index, ratio of CC50 for African green monkey Vero cells to IC50 for Brugia malayi microfilaria; format: functional
[15] = (§3) Cytotoxicity against African green monkey Vero cells after 72 hrs by resazurin dye-based fluorescence assay; format: cell-based; settings: chlorocebus sabaeus, Vero cells
[16] = test system: Brugia malayi; assay: Antifilarial activity against Brugia malayi adult worm infected in jird model assessed as adulticidal activity at 100 mg/kg, sc after 5 days measured till day 45 relative to control; format: functional; settings: route subcutaneous
[17] = test system: Brugia malayi; assay: Antifilarial activity against Brugia malayi adult worm infected in jird model assessed as sterile female at 100 mg/kg, sc after 5 days measured till day 45 relative to control; format: functional; settings: route subcutaneous
[18] = test system: Brugia malayi; assay: Antifilarial activity against Brugia malayi microfilariae infected in jird model assessed as microfilaricidal activity at 100 mg/kg, sc after 5 days measured till day 45 relative to control; format: functional; settings: route subcutaneous
[19] = test system: Brugia malayi; assay: Antifilarial activity against Brugia malayi adult worm assessed as reduction in motility at 5 uM after 5 days by MTT dye reduction assay; format: functional; settings: 120 h
[20] = test system: Brugia malayi; assay: Antifilarial activity against Brugia malayi adult worm assessed as reduction in motility at 2.5 uM after 5 days by MTT dye reduction assay; format: functional; settings: 120 h
[21] = test system: Brugia malayi; assay: Antifilarial activity against Brugia malayi adult worm assessed as reduction in motility at 1.25 uM after 5 days by MTT dye reduction assay; format: functional; settings: 120 h
[22] = test system: Brugia malayi; assay: Antifilarial activity against Brugia malayi adult worm assessed as reduction in motility at 0.625 uM after 5 days by MTT dye reduction assay; format: functional; settings: 120 h
[23] = test system: Brugia malayi; assay: Antifilarial activity against Brugia malayi microfilaria assessed as reduction in motility at 5 uM after 5 days by MTT dye reduction assay; format: functional; settings: 120 h
[24] = test system: Brugia malayi; assay: Antifilarial activity against Brugia malayi microfilaria assessed as reduction in motility at 2.5 uM after 5 days by MTT dye reduction assay; format: functional; settings: 120 h
[25] = test system: Brugia malayi; assay: Antifilarial activity against Brugia malayi microfilaria assessed as reduction in motility at 1.25 uM after 5 days by MTT dye reduction assay; format: functional; settings: 120 h
[26] = test system: Brugia malayi; assay: Antifilarial activity against Brugia malayi microfilaria assessed as reduction in motility at 0.625 uM after 5 days by MTT dye reduction assay; format: functional; settings: 120 h
[27] = test system: Brugia malayi; assay: Antifilarial activity against Brugia malayi adult worm assessed as reduction in motility at 8.9 uM after 5 days by MTT dye reduction assay; format: functional, organism-based
[28] = test system: Brugia malayi; assay: Antifilarial activity against Brugia malayi adult worm assessed as reduction in motility at 4.45 uM after 5 days by MTT dye reduction assay; format: functional, organism-based
[29] = test system: Brugia malayi; assay: Antifilarial activity against Brugia malayi adult worm assessed as reduction in motility at 2.17 uM after 5 days by MTT dye reduction assay; format: functional, organism-based
[30] = test system: Brugia malayi; assay: Antifilarial activity against Brugia malayi adult worm assessed as reduction in motility at 1.12 uM after 5 days by MTT dye reduction assay; format: functional, organism-based
[31] = test system: Brugia malayi; assay: Antifilarial activity against Brugia malayi microfilaria assessed as reduction in motility at 8.9 uM after 5 days by MTT dye reduction assay; format: functional, organism-based
[32] = test system: Brugia malayi; assay: Antifilarial activity against Brugia malayi microfilaria assessed as reduction in motility at 4.45 uM after 5 days by MTT dye reduction assay; format: functional, organism-based
[33] = test system: Brugia malayi; assay: Antifilarial activity against Brugia malayi microfilaria assessed as reduction in motility at 2.17 uM after 5 days by MTT dye reduction assay; format: functional, organism-based
[34] = test system: Brugia malayi; assay: Antifilarial activity against Brugia malayi microfilaria assessed as reduction in motility at 1.12 uM after 5 days by MTT dye reduction assay; format: functional, organism-based
[35] = test system: Vero; assay: as §1; format: functional
[36] = test system: Vero; assay: as §2; format: functional
[37] = test system: Vero; assay: as §3; format: cell-based; settings: chlorocebus sabaeus, vero, 72 h
[38] = test system: Brugia malayi; assay: Ratio of ivermectin IC50 to compound IC50 for Brugia malayi adult worm; format: functional
[39] = test system: Brugia malayi; assay: Ratio of ivermectin IC50 to compound IC50 for Brugia malayi microfilariae; format: functional
[40] = test system: Brugia malayi; assay: Antifilarial activity against Brugia malayi adult worm assessed as reduction in motility at 10 uM after 5 days by MTT dye reduction assay; format: functional, organism-based
[41] = test system: Brugia malayi; assay: Antifilarial activity against Brugia malayi microfilaria assessed as reduction in motility at 10 uM after 5 days by MTT dye reduction assay; format: functional, organism-based

Molecule | inhibition at 0.312 µM [1] | inhibition at 0.156 µM [2] | inhibition at 0.078 µM [3] | inhibition at 0.039 µM [4] | inhibition at 0.019 µM [5] | inhibition at 0.312 µM [6] | inhibition at 0.156 µM [7] | inhibition at 0.078 µM [8] | inhibition at 0.039 µM [9] | inhibition at 0.019 µM [10] | IC50 ([11]; Brugia malayi, 120 h) | MIC ([11]; Brugia malayi, 120 h) | Ratio CC50/IC50 [12] | IC50 ([13]; Brugia malayi, 120 h) | MIC ([13]; Brugia malayi, 120 h) | Ratio CC50/IC50 [14] | CC50 at 72 h [15] | Activity [16] | Activity [17] | Activity [18] | also measured
CCCCCCCC/C=C/CCCCCCCCNCC(O)COc1cc(=O)oc2ccccc12 (stereo not given) | 90.4% | 45% | 42% | 10.2% | 8.5% | 100% | 75% | 75% | 50% | 50% | 0.094 µM | 0.31 µM (≈ 0.151 µg/mL) | >1063 | 0.013 µM | 0.31 µM (≈ 0.151 µg/mL) | >7692 | > 100 µM | 69.4% | 16.6% | 50.9% | 
O=c1cc(OCC(O)CNC2CC2)c2ccccc2o1 (stereo not given) |  |  |  |  |  |  |  |  |  |  | 0.88 µM | 5 µM (≈ 1.38 µg/mL) | >113.6 | 0.38 µM | 2.5 µM (≈ 0.688 µg/mL) | >263.15 | > 100 µM | 52.8% | 0% | 31.4% | inhibition at 5 µM [19]: 97.5%; inhibition at 2.5 µM [20]: 56.4%; inhibition at 1.25 µM [21]: 43.7%; inhibition at 0.625 µM [22]: 34.3%; inhibition at 5 µM [23]: 100%; inhibition at 2.5 µM [24]: 75%; inhibition at 1.25 µM [25]: 75%; inhibition at 0.625 µM [26]: 75%
IVERMECTIN [listing 1 of 2 here] |  |  |  |  |  |  |  |  |  |  |  |  |  |  |  |  |  |  |  |  | inhibition [27]: 61.2%; inhibition [28]: 35.3%; inhibition [29]: 21.6%; inhibition [30]: 17.7%; inhibition [31]: 0%; inhibition [32]: 1%; inhibition [33]: 1%; inhibition [34]: 50%; MIC [11]: 8.9 µM; Ratio CC50/IC50 [35]: 29.5; MIC [13]: 10 µM; Ratio CC50/IC50 [36]: 13.3
IVERMECTIN [listing 2 of 2 here] |  |  |  |  |  |  |  |  |  |  |  |  |  |  |  |  |  |  |  |  | IC50 [11]: 1.8 µM; IC50 [13]: 4 µM; CC50 [37]: 53.1 µM
CCCCCCCCCCCCNCC(O)COc1cc(=O)oc2ccccc12 (stereo not given) | 90.8% | 75.5% | 56% | 50% | 30% | 75% | 75% | 75% | 75% | 50% | 0.014 µM | 1.25 µM (≈ 0.504 µg/mL) | >7142 | 0.0056 µM | 0.625 µM (≈ 0.252 µg/mL) | >17857 | > 100 µM | 74.9% | 19.3% | 50.8% | inhibition at 1.25 µM [21]: 99.5%; inhibition at 0.625 µM [22]: 92.4%; inhibition at 1.25 µM [25]: 100%; inhibition at 0.625 µM [26]: 75%; Ratio IC50 [38]: 129; Ratio IC50 [39]: 714
O=C(O)CCCNCC(O)COc1cc(=O)oc2ccccc12 (stereo not given) |  |  |  |  |  |  |  |  |  |  |  |  |  |  |  |  |  |  |  |  | inhibition at 5 µM [19]: 17.5%; Activity [40]: inactive; inhibition at 5 µM [23]: 1%; Activity [41]: inactive; MIC [11]: inactive; MIC [13]: inactive
